Test results reported in patent US20190187129A1, “CANCER MODELING PLATFORMS AND METHODS OF USING THE SAME” (Wake Forest University Health Sciences, priority 2016, published 2019).
Entries after “also recorded” stand apart in the source; their conditions may differ.

Tests used:
CACO2 cells = assay: 3D hyaluronan-based hydrogel construct drug screen, MTS assay; settings: Homo sapiens, Caco-2, 3D, read-out: percent relative cell viability (MTS, relative to control)
Method: Polydimethylsiloxane, or PDMS, was used to coat the bottom of the wells. Cells were embedded within the hyaluronan-based hydrogel and were given 5 days to acclimate to their three-dimensional environment and on day 5 were administered different anticancer drug solutions (FIG. 7, panel A). […] At 100 μM concentrations of Regorafenib and Sorafenib, cellular viability remained below 25% that of the control for all four of the colorectal cancer cell lines utilized. The only exception to this was when 100 μM Regorafenib was administered to CACO2 cells and the percent relative cell viability rose to approximately 48%. […] At a 100 μM concentration, Dabrafenib had greater efficacy in targeting the HCT116 and SW480 cell lines, which had relative cellular viability values of 38% and 43%, as opposed to the HT29 and CACO2 cell lines, which had higher cell viability values of 93% and 75%. 100 μM concentrations of Trametinib produced relative cellular viability results that fell within a narrow range for the four colorectal cell lines with values of 54% for SW480 cells and 74% for HT29 cells.
Well Coating with PDMS and Cell Isolation: Polydimethylsiloxane, or PDMS, (DOW Corning, North Carolina, USA) was used at a 1:10 curing agent ratio to coat the bottom of the 96-well plates and the plates were then placed in a 80° C. oven for at least one hour. Cells were passaged in the same methods previously mentioned (A) with the desire to place 10 μL 3D hyaluronan-based hydrogel constructs containing 100,000 cells each ([…]) into the wells of a 96-wells plate for all four colorectal cancer cell types. Depending on the cell count, a desired number of cells were isolated in new 15 mL centrifuge tubes as cell-media solution and underwent centrifugation.
Hydrogel Components of the Single-Cell Type Constructs: The hyaluronic acid-based hydrogel (ESI BIO, California, USA) was produced using a mixture of three components: Heprasil, Gelin-S, and Extralink PEGDA 2-ARM Acrylate crosslinker. These components were mixed in a 2:2:1 ratio by volume. 0.1% Irgacure photoinitiator (Sigma-Aldrich, Missouri, USA) was added to each of the three components prior to their mixture and the three components were placed in a 37° C. incubator for a ˜30 minutes to solubilize.
Forming Organoid Constructs: Once solubilized, the media was aspirated from the 15 mL centrifuge tube (post-centrifugation) and the cells were isolated as a pellet. The hydrogel components were added directly into the centrifuge tube containing the cells and the cells were carefully resuspended in the mixture. 10 μL of the gel-cell solution was placed in the center of the wells on the PDMS coating. This was continued for all wells containing cells and was repeated for each cell type. […]

[1] = system: HCT116-CACO2 ringed constructs; assay: Ringed organoid drug screening, live-dead stain; assay type: cell-based; settings: for % dead: % live ratio: drug day 5, stain day 7; for cell type targeted in ringed construct (live-dead images): inner HCT116 versus outer CACO2, day 7
Method: Polydimethylsiloxane, or PDMS, was again used to coat the bottom of the wells. HCT116 cells were embedded within hyaluronan hydrogel and constructs were created on the PDMS surface. CACO2 cells that were also embedded within hyaluronan gel were used to create the outer ring around the HCT116 inner-ring construct (FIG. 9, panel A).
A live-dead stain was carried out on the ringed-constructs on day 7 and imaged on an Axiovert microscope (FIG. 9, panel B). The imaging software, MATLAB, was used to generate a % dead: % live ratio (or % red (medium grey in black and white images): % green (light grey in black and white images)) for the ringed-constructs. The values were then graphed showing the ratios for each of the concentrations of Regorafenib and 5-FU and against the control, untreated ratio (FIG. 9, panel C). At 100 μM, Regorafenib and 5-FU both have % dead: % live ratios of 0.98. This means that approximately half of the HCT116 and CACO2 cells are alive and half have been targeted by the anticancer drugs. When analyzing the relative cellular viability when the 1 μM and 10 μM concentrations of Regorafenib and 5-FU were administered, the % dead: % live ratios are much greater for the 5-FU solutions than for the Regorafenib solutions. At 1 μM, the % dead: % live ratio is 0.95 for 5-FU as opposed to 0.48 for Regorafenib, and at 10 μM, the % dead: % live ratio is 0.78 for 5-FU as opposed to 0.08 for Regorafenib. The % dead: % live ratios for the three concentrations of Regorafenib and 5-FU were substantially higher than the control % dead: % live ratio value of only 0.03.
Hydrogel Components of the Ringed Organoid Constructs: The hyaluronic acid-based hydrogel used in making the ringed organoids was a mixture of four components: Heprasil, Gelin-S, and PEGDA 2-ARM Acrylate crosslinker (Extralink), and Alkyne-PEG-Alkyne 2-ARM crosslinker (ESI BIO, California, USA). These components were mixed in a 4:4:1:1 ratio by volume. 0.1% Irgacure photoinitiator was added to each of the four components prior to their mixture and the […] were placed in a 37° C. incubator for a ˜30 minutes to solubilize. HCT116 and CACO2 cells were isolated in the passaging method previously mentioned and PDMS was used to coat the bottom of the 96-well plates.
Forming Ringed-Organoid Constructs: The four components of the hydrogel were added to the 15 mL centrifuge tube containing the HCT116 cell pellet and the cells were resuspended within the mixture. 10 μL of the HCT116 containing hydrogel were placed in the center of the wells and left untouched with aluminum foil covering the 96-well plates for ˜35 minutes. During this time, the PEGDA 2-ARM Acrylate will crosslink the gel, while the UV-sensitive 2-ARM Alkyne-PEG-Alkyne will remain uncrosslinked.
While waiting for the PEGDA to crosslink, add the four hydrogel components to the 15 mL centrifuge tube containing the isolated CACO2 cells and resuspend the cells within the gel. Remove the aluminum foil wrapping on the 96-well plate and inspect the construct to see if they have solidified yet. If so, take 25 μL of the CACO2-embedded-hydrogel and carefully place in the area around the HCT116 construct. Use the pipette tip to physically move the CACO2 gel around the construct on all sides. Use UV light from BlueWave 200 spot light to crosslink both gels together to form a fused, ringed-construct. Add DMEM-10 media to fill up the wells.
Anticancer Drug Screening: On day 5, 1 μM, 10 μM, and 100 μM drug solutions of 5-FU were added to ringed constructs and 1 μM, 10 μM, and 100 μM drug solutions of Regorafenib were added to separate ringed constructs. Three duplicates were generated for each of the drug concentrations and a no-drug control was maintained as well.
Live-Dead Staining and Microscopy: On day 7, the ringed-constructs underwent a Live-Dead stain and the construct were imaged on an Axiovert 200M 487-1 microscope (Carl Zeiss AG, Oberkochen, Germany). […]

SMILES | viability at 10000 µM (CACO2 cells; 10 mM, CACO2) [%] | % dead: % live ratio ([1]; 1 μM) | % dead: % live ratio ([1]; 10 μM) | % dead: % live ratio ([1]; 100 μM) | cell type targeted in ringed construct (live-dead images) [1] | viability at 100 µM (CACO2 cells; 100 μM, CACO2, drug day 5, assay day 7) [%]
O=c1[nH]cc(F)c(=O)[nH]1 [5-FU, 5-Fluorouracil] | 22 | 0.95 | 0.78 | 0.98 | targeting both cell types to similar degrees; also recorded: universal cell death of both HCT116 and CACO2 | 
CNC(=O)c1cc(Oc2ccc(NC(=O)Nc3ccc(Cl)c(C(F)(F)F)c3)c(F)c2)ccn1 [Regorafenib] |  | 0.48 | 0.08 | 0.98 | inner HCT116 cells were affected by Regorafenib to a greater extent than the CACO2 cells; also recorded: targeted cell death of HCT116 | ~48
